The numbers were not newly measured in patent US4650854A, “Amide analogs of calcitonin” (USV Pharmaceutical Corporation, priority 1985, dated 1987), which cites them from elsewhere.

Where no end group is shown, it is not given here.

The conditions of this data set: Monikawa et al., Experientia 32(9), 1104-1106 (1976).

Regarding “(1,7-α-L-aminosuberic acid)eel calcitonin”, the hypocalcemic potency entry was “about 3400 Iu/mg”. As to “eel calcitonin (CSNLSTCVLGKLSQELHKLQTYPRTDVGAGTP; ends and bridges not checked; cysteine pairing not given here; UniProt P01262 1-32, looked up) [synthetic eel calcitonin, synthetic eel calcitonin, natural 32 amino acid calcitonin peptide]”, the hypocalcemic potency entry was “around 4300 Iu/mg”.
